The source of these data is patent publication US10913727B2, “Modulators of the integrated stress pathway” (Calico Life Sciences LLC, priority 2016, dated 2021).

Each structure is given as a SMILES string.

The test concerns HEK293T cells carrying the ATF4 luciferase reporter. Briefly: ATF4-Luc assay, in vitro model of Vanishing Cell White Matter Disease (VWMD). It counts as cell-based. Particulars: Homo sapiens, HEK-293T, 1 μg/mL tunicamycin, 7 hours, One Glo luminescence. The essentials: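 Stable HEK293T line with human ATF4 5′-UTR–firefly luciferase reporter treated with 1 μg/mL tunicamycin plus 200 nM compound for 7 h. Luminescence read; EC50 derived.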
What is called EC50 is the concentration that produces a half-maximal response. Turning to `O=C(COc1ccc(Cl)c(F)c1)NC12CC(NC(=O)c3cnc(-c4ccccc4)o3)(C1)C2` [Compound 344, N-{3-[2-(4-chloro-3-fluorophenoxy)acetamido]bicyclo[1.1.1]pentan-1-yl}-2-phenyl-1,3-oxazole-5-carboxamide], the EC50 is below 50 nM.

For the molecule `Cn1nc(C(=O)NC23CC(NC(=O)COc4ccc(Cl)c(F)c4)(C2)C3)cc1-c1ccccc1` [Compound 345, N-{3-[2-(4-chloro-3-fluorophenoxy)acetamido]bicyclo[1.1.1]pentan-1-yl}-1-methyl-5-phenyl-1H-pyrazole-3-carboxamide], the 50% effective concentration (EC50) fell in the range of 50 to 250 nM.

As to `O=C(COc1ccc(Cl)c(F)c1)NC12CC(NC(=O)c3noc4ccccc34)(C1)C2` [Compound 346, N-{3-[2-(4-chloro-3-fluorophenoxy)acetamido]bicyclo[1.1.1]pentan-1-yl}-1,2-benzoxazole-3-carboxamide], the EC50 was 250 to 1000 nM.

Regarding `O=C(COc1ccc(Cl)c(F)c1)NC12CC(NC(=O)c3nc4ccccc4o3)(C1)C2` [Compound 347, N-{3-[2-(4-chloro-3-fluorophenoxy)acetamido]bicyclo[1.1.1]pentan-1-yl}-1,3-benzoxazole-2-carboxamide], the half-maximal effective concentration (EC50) is 250 to 1000 nM.

In the case of `CC(C)Cc1cc(C(=O)NC23CC(NC(=O)COc4ccc(Cl)c(F)c4)(C2)C3)on1` [Compound 348, N-{3-[2-(4-chloro-3-fluorophenoxy)acetamido]bicyclo[1.1.1]pentan-1-yl}-3-(2-methylpropyl)-1,2-oxazole-5-carboxamide], the EC50 is 50 to 250 nM.

As for `O=C(COc1ccc(F)c(F)c1)NC12CCC(NC(=O)c3ccc(C(F)(F)F)cn3)(CC1)C(O)C2` (stereo not shown) [Compound 349, N-{4-[2-(3,4-difluorophenoxy)acetamido]-2-hydroxybicyclo[2.2.2]octan-1-yl}-5-(trifluoromethyl)pyridine-2-carboxamide], the EC50 is 250 to 1000 nM.

For `CC(C)c1cc(C(=O)NC23CC(NC(=O)COc4ccc(Cl)c(F)c4)(C2)C3)on1` [Compound 350, N-{3-[2-(4-chloro-3-fluorophenoxy)acetamido]bicyclo[1.1.1]pentan-1-yl}-3-(propan-2-yl)-1,2-oxazole-5-carboxamide], the EC50 fell in the range of 250 to 1000 nM.

In the case of `CCOc1ccc(C(=O)NC23CC(NC(=O)COc4ccc(Cl)c(F)c4)(C2)C3)cc1` [Compound 351, N-{3-[2-(4-chloro-3-fluorophenoxy)acetamido]bicyclo[1.1.1]pentan-1-yl}-4-ethoxybenzamide], the 50% effective concentration (EC50) was in the range of 50 to 250 nM.

As to `CN(C(=O)c1cnc(C(F)F)cn1)C12CC(NC(=O)COc3ccc(Cl)c(F)c3)(C1)C2` [Compound 352, N-{3-[2-(4-chloro-3-fluorophenoxy)acetamido]bicyclo[1.1.1]pentan-1-yl}-5-(difluoromethyl)-N-methylpyrazine-2-carboxamide], the EC50 lay in the range of 50 to 250 nM.

Consider `CC(C)(C)c1cc(C(=O)NC23CCC(NC(=O)COc4ccc(Cl)c(F)c4)(CC2)C(O)C3)on1` (stereo not shown) [Compound 353, 3-tert-butyl-N-{4-[2-(4-chloro-3-fluorophenoxy)acetamido]-3-hydroxybicyclo[2.2.2]octan-1-yl}-1,2-oxazole-5-carboxamide], for which the half-maximal effective concentration (EC50) was 50 to 250 nM.

On to `Cc1nnc(C(=O)NC23CC(NC(=O)COc4ccc(Cl)c(F)c4)(C2)C3)o1` [Compound 354, N-{3-[2-(4-chloro-3-fluorophenoxy)acetamido]bicyclo[1.1.1]pentan-1-yl}-5-methyl-1,3,4-oxadiazole-2-carboxamide], for which the concentration giving a half-maximal response (EC50) is 1000 to 2000 nM.

Turning to `Cc1cc(C(=O)N(C)C23CC(NC(=O)COc4ccc(Cl)c(F)c4)(C2)C3)on1` [Compound 355, N-{3-[2-(4-chloro-3-fluorophenoxy)acetamido]bicyclo[1.1.1]pentan-1-yl}-N,3-dimethyl-1,2-oxazole-5-carboxamide], the EC50 was 1000 to 2000 nM.

`O=C(COc1ccc(Cl)c(F)c1)NC12CCC(NC(=O)c3ccccn3)(C1)C2` [Compound 356, N-{4-[2-(4-chloro-3-fluorophenoxy)acetamido]bicyclo[2.1.1]hexan-1-yl}pyridine-2-carboxamide]: the EC50 was above 2000 nM.
